Laboratory results from ChEMBL document CHEMBL1153935, “4,4'-Dihydroxy-trans-stilbene, a resveratrol analogue, exhibited enhanced antioxidant activity and cytotoxicity” (Bioorg Med Chem, 2009).
The source made the active and inactive calls. No cut-off for these calls is given here.

Columns and labels:
[1] = system: HL-60; experiment: Cytotoxicity against human HL60 cells after 48 hrs by MTT assay; type: functional, cell-based; settings: for IC50: HL-60, 48 h
[2] = system: Erythrocyte; experiment: Inhibition of Fe(2+)/ascorbate-induced lipid peroxidation in human erythrocyte ghosts assessed as inhibition of malondialdehyde formation at 5 uM; type: functional, cell-based
[3] = system: HL-60; experiment: Cytotoxicity against human HL60 cells at 10 uM after 48 hrs by MTT assay; type: functional
[4] = system: HL-60; experiment: Cytotoxicity against human HL60 cells at 30 uM after 48 hrs by MTT assay; type: functional
[5] = system: Erythrocyte; experiment: Inhibition of Fe(2+)/ascorbate-induced lipid peroxidation in human erythrocyte ghosts assessed as inhibition of malondialdehyde formation per mg of protein at 2 uM after 30 mins; type: functional
[6] = system: Erythrocyte; experiment: Inhibition of Fe(2+)/ascorbate-induced lipid peroxidation in human erythrocyte ghosts assessed as inhibition of malondialdehyde formation at 1 to 5 uM; type: functional, cell-based
[7] = system: Erythrocyte; experiment: Inhibition of Fe(2+)/ascorbate-induced lipid peroxidation in human erythrocyte ghosts assessed as increase in inhibition period; type: functional, cell-based
[8] = system: HL-60; experiment: Cytotoxicity against human HL60 cells at 20 uM after 48 hrs by MTT assay; type: functional
[9] = system: Erythrocyte; experiment: Inhibition of Fe(2+)/ascorbate-induced lipid peroxidation in human erythrocyte ghosts assessed as inhibition of malondialdehyde formation per mg of protein at 1 uM after 30 mins; type: functional
[10] = system: Erythrocyte; experiment: Inhibition of Fe(2+)/ascorbate-induced lipid peroxidation in human erythrocyte ghosts assessed as inhibition of malondialdehyde formation per mg of protein at 3 uM after 30 mins; type: functional

SMILES | Activity [1] | IC50 [1] [µM] | Activity [2] | Activity [3] [%] | Activity [4] [%] | Activity [5] [nmol] | Activity [6] | Activity [7] | Activity [8] [%] | Activity [9] [nmol] | Activity [10] [nmol]
Oc1ccc(/C=C/c2cc(O)cc(O)c2)cc1 [RESVERATROL] | Dose-dependent effect | 36.3 | Active | 83 | 43 | 0.61 | Dose-dependent effect | Dose-dependent effect | 72 | 1.33 | 0.18
Oc1ccc(/C=C/c2ccc(O)cc2)cc1 [TRANS-4,4'-DIHYDROXYSTILBENE] | – | 6.5 | – | – | – | 0.45 | – | – | – | 0.8 | 0.17
COc1cc([C@@H]2c3cc4c(cc3[C@@H](O[C@@H]3O[C@@H]5CO[C@@H](C)O[C@H]5[C@H](O)[C@H]3O)[C@H]3COC(=O)[C@H]23)OCO4)cc(OC)c1O [ETOPOSIDE] | – | 3.3 | – | – | – | – | – | – | – | – | –
